Key:
[1] = biological target: Serine/threonine-protein kinase PAK 6 (Homo sapiens) (UniProt Q9NQU5); assay: Selectivity interaction (KinomeScan (DiscoverX)) EUB0000666a PAK6; details: at 10 µM
[2] = biological target: Serine/threonine-protein kinase PAK 3 (Homo sapiens) (UniProt O75914); details: at 10 µM
[3] = biological target: Dual specificity protein kinase CLK3 (Homo sapiens, UniProt P49761); assay: Selectivity interaction (ActivX KiNativ screen (kinase selectivity in THP-1 cell lysates)) EUB0000639a CLK3; assay type: subcellular; details: lysate
[4] = biological target: cAMP-dependent protein kinase catalytic subunit beta (Homo sapiens) (UniProt P22694); assay: Selectivity interaction (KinomeScan (DiscoverX)) EUB0000655a PRKACB; details: at 10 µM
[5] = tested on: Phosphatidylinositol 4,5-bisphosphate 3-kinase catalytic subunit alpha isoform (Homo sapiens), P42336 [C420R]; assay: (§1) Selectivity interaction (KinomeScan (DiscoverX)) EUB0000045b PIK3CA
[6] = tested on: Phosphatidylinositol 4,5-bisphosphate 3-kinase catalytic subunit alpha isoform (Homo sapiens), P42336 [E545K]; assay: as §1
[7] = tested on: Phosphatidylinositol 4,5-bisphosphate 3-kinase catalytic subunit alpha isoform (Homo sapiens), P42336 [H1047L]; assay: as §1
[8] = tested on: Phosphatidylinositol 4,5-bisphosphate 3-kinase catalytic subunit alpha isoform (Homo sapiens), P42336 [M1043I]; assay: as §1
[9] = tested on: Phosphatidylinositol 4,5-bisphosphate 3-kinase catalytic subunit alpha isoform (Homo sapiens), P42336 [Q546K]; assay: as §1
[10] = biological target: T1, Inhibitor of nuclear factor kappa-B kinase subunit alpha (Homo sapiens) (UniProt O15111); assay: Selectivity interaction (KinomeScan (DiscoverX)) EUB0000229b CHUK; details: at 10 µM
T1 sequence (whole entry): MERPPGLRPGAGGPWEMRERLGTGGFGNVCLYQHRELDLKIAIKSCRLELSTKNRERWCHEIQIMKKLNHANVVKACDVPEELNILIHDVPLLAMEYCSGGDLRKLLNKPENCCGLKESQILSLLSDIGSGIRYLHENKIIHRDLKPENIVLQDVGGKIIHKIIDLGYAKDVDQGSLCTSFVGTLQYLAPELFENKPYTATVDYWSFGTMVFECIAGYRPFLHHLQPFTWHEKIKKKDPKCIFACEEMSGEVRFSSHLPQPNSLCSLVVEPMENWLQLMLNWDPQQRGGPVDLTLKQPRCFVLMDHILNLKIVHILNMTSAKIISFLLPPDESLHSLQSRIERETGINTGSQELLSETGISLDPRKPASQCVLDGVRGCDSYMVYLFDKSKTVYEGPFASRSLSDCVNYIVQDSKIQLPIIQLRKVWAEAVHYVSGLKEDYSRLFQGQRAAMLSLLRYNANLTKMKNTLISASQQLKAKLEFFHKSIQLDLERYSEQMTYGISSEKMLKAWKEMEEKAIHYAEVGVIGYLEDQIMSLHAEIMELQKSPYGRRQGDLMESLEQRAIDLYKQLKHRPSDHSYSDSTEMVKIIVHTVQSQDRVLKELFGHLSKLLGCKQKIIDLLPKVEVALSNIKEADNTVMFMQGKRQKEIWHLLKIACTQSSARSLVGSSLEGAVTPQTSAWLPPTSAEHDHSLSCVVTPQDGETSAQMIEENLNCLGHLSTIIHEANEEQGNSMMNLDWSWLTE

[11] = biological target: T2, Dual serine/threonine and tyrosine protein kinase (Homo sapiens) (UniProt Q6XUX3); assay: Selectivity interaction (KinomeScan (DiscoverX)) EUB0000229b DSTYK; details: at 10 µM
T2 sequence (whole entry): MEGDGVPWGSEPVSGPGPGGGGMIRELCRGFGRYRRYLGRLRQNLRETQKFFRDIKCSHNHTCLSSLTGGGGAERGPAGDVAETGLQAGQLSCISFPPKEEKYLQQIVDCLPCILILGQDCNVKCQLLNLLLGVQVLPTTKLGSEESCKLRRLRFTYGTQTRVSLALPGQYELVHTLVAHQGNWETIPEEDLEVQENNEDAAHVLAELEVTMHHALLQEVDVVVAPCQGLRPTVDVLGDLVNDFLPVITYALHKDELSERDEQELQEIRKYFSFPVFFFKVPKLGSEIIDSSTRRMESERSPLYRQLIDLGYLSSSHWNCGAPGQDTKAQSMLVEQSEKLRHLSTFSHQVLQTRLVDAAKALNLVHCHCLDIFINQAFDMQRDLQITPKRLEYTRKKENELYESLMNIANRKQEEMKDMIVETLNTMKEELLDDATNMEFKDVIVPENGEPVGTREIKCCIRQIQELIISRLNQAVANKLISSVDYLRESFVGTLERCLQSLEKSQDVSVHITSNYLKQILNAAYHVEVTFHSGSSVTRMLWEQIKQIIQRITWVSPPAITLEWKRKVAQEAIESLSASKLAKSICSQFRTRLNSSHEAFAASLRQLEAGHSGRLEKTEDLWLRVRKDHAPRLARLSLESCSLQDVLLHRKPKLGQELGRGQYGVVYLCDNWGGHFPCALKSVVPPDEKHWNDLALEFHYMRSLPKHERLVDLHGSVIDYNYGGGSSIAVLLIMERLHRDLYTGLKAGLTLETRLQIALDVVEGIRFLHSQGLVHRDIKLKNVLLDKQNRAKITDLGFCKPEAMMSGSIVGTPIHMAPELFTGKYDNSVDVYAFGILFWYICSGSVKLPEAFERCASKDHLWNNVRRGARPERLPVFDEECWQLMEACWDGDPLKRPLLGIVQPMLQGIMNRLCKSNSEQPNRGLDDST

[12] = biological target: Tyrosine-protein kinase Fyn (Homo sapiens) (UniProt P06241); assay: Selectivity interaction (KinomeScan (DiscoverX)) EUB0001619a FYN; details: at 1 µM
Chain of Tyrosine-protein kinase Fyn (Homo sapiens) (P06241 2-537 limits assumed): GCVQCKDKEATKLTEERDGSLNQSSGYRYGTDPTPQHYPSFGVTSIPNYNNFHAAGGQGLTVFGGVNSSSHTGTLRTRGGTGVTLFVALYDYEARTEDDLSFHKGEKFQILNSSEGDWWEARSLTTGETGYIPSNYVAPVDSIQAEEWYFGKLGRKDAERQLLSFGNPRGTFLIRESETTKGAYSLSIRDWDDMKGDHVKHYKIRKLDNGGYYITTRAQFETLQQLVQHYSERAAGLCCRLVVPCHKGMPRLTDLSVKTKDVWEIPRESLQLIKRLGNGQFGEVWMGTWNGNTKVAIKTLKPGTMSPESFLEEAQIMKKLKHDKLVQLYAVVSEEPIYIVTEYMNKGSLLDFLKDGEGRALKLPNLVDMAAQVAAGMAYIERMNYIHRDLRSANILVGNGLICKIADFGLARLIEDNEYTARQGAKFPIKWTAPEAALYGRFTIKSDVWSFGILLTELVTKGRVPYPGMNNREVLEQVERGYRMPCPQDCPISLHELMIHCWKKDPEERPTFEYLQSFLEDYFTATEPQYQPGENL

Chain of Dual specificity protein kinase CLK3 (P49761 whole entry, looked up): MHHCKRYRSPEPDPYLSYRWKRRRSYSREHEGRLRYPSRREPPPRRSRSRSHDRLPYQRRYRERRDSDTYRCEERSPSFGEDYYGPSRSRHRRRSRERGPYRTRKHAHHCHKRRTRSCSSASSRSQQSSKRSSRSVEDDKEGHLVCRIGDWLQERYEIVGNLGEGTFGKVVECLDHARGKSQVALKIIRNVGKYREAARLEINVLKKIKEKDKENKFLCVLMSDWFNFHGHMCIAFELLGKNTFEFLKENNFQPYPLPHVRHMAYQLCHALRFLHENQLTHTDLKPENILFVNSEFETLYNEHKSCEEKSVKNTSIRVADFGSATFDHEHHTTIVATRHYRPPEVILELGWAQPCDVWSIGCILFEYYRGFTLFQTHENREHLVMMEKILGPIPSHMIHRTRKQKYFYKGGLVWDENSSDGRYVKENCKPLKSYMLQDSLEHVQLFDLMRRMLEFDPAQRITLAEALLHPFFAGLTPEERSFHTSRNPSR
Chain of Phosphatidylinositol 4,5-bisphosphate 3-kinase catalytic subunit alpha isoform (Homo sapiens), P42336 [C420R] (P42336 whole entry C420R, canonical isoform): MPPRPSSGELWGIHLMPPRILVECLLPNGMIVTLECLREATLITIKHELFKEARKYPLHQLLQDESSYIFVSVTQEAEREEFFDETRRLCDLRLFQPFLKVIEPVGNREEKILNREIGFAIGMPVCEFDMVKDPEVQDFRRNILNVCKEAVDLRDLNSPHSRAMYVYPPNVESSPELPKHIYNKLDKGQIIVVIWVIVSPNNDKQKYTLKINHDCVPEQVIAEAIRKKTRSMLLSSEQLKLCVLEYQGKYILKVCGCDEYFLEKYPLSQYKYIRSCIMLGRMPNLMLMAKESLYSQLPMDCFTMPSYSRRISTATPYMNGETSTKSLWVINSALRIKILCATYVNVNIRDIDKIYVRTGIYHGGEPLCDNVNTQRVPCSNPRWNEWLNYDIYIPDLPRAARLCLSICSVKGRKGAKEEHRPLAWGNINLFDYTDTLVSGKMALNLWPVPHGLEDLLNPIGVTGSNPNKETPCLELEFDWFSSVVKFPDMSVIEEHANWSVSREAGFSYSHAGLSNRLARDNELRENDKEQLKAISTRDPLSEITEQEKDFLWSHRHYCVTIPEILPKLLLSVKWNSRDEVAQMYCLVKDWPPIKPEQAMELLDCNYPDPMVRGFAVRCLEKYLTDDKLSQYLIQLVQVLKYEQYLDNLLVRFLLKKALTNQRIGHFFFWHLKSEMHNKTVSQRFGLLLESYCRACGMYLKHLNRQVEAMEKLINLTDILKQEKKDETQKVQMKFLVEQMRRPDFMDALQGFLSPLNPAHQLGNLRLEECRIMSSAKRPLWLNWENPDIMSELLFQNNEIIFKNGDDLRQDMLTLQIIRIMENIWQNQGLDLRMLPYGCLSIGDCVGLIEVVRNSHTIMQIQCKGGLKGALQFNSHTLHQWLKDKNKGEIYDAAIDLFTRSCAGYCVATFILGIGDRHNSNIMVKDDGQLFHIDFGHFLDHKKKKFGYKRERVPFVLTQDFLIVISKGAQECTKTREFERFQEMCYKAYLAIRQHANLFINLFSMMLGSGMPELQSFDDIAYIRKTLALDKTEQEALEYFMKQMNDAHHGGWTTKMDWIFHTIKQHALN
Chain of Phosphatidylinositol 4,5-bisphosphate 3-kinase catalytic subunit alpha isoform (Homo sapiens), P42336 [Q546K] (P42336 whole entry Q546K, canonical isoform): as the sequence (P42336 whole entry C420R, canonical isoform) above, with R420C, Q546K counted along it
Chain of Phosphatidylinositol 4,5-bisphosphate 3-kinase catalytic subunit alpha isoform (Homo sapiens), P42336 [H1047L] (P42336 whole entry H1047L, canonical isoform): as the sequence (P42336 whole entry C420R, canonical isoform) above, with R420C, H1047L counted along it
Chain of Phosphatidylinositol 4,5-bisphosphate 3-kinase catalytic subunit alpha isoform (Homo sapiens), P42336 [E545K] (P42336 whole entry E545K, canonical isoform): as the sequence (P42336 whole entry C420R, canonical isoform) above, with R420C, E545K counted along it
Chain of Phosphatidylinositol 4,5-bisphosphate 3-kinase catalytic subunit alpha isoform (Homo sapiens), P42336 [M1043I] (P42336 whole entry M1043I, canonical isoform): as the sequence (P42336 whole entry C420R, canonical isoform) above, with R420C, M1043I counted along it
Chain of Serine/threonine-protein kinase PAK 6 (Homo sapiens) (Q9NQU5 whole entry, looked up): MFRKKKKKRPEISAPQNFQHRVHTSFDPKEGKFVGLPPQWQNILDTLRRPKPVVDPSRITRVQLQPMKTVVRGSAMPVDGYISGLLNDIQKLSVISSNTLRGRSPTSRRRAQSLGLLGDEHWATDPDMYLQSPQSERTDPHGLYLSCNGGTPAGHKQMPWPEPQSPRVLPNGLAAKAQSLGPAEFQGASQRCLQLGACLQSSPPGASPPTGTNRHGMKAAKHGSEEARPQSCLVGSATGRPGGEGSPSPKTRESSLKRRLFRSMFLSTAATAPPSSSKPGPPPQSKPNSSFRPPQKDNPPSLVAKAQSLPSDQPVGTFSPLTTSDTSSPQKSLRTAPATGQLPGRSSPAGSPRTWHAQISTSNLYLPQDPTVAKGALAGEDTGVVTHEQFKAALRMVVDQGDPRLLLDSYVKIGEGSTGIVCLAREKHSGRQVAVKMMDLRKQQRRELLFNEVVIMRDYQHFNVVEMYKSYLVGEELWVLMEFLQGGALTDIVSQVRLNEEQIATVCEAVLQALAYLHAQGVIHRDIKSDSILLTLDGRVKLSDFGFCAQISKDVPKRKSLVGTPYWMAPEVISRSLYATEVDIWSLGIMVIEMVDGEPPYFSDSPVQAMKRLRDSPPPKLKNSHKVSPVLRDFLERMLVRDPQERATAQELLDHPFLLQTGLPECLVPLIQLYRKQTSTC
Chain of Serine/threonine-protein kinase PAK 3 (Homo sapiens) (O75914 whole entry, looked up): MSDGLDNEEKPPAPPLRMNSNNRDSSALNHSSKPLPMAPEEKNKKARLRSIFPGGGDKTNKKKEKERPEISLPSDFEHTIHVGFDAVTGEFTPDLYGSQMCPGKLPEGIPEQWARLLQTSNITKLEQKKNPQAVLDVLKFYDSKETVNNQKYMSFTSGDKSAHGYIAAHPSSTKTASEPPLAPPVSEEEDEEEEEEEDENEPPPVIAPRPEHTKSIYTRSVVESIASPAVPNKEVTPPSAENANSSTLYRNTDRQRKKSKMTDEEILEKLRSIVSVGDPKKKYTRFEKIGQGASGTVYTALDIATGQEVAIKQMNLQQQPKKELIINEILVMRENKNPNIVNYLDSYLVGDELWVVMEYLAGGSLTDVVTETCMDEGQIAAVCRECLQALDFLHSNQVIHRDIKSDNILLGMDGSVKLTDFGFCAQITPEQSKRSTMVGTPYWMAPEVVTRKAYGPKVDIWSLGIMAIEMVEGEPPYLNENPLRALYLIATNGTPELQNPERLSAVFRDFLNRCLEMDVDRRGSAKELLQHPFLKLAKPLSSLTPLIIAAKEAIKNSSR

## O=C(NOC[C@H](O)CO)c1ccc(F)c(F)c1Nc1ccc(I)cc1F
[1]
  % of control: 94%

## CCN(CC)CCCCNc1ncc2cc(-c3cc(OC)cc(OC)c3)c(NC(=O)NC(C)(C)C)nc2n1
[2]
  % of control: 100%

## CC[C@@H]1[C@H](F)C(=O)N[C@@H]1COc1nccc2cc(C(N)=O)c(OC)cc12 [ZIMLOVISERTIB]
[3]; at 0.01 µM
  % of inhibition: 8.2%
[3]; at 0.04 µM
  % of inhibition: 15.5%
[3]; at 0.2 µM
  % of inhibition: 0.7%
[3]; at 1 µM
  % of inhibition: 5.8%
[3]; at 5 µM
  % of inhibition: 12.1%

## CN(C)CCOc1ccc(-c2nc(-c3ccncc3)c(-c3ccc4c(c3)CC/C4=N\O)[nH]2)cc1
[4]
  % of control: 74%

## C=CC(=O)Nc1cc(-n2c(=O)ccc3cnc4ccc(-c5ccc(NS(C)(=O)=O)cc5)cc4c32)ccc1C
[5]; at 1 µM
  % of control: 100%
[5]; at 10 µM
  % of control: 32%
[6]; at 1 µM
  % of control: 100%
[6]; at 10 µM
  % of control: 74%
[7]; at 1 µM
  % of control: 100%
[7]; at 10 µM
  % of control: 86%
[8]; at 1 µM
  % of control: 100%
[8]; at 10 µM
  % of control: 24%
[9]; at 1 µM
  % of control: 100%
[9]; at 10 µM
  % of control: 35%

## COc1cc(N(C)c2ccnc3ccc(C(F)(F)F)cc23)cc(OC)c1OC
[10]
  % binding: 92%
[11]
  % binding: 82%

## N#Cc1cccc(-c2c[nH]c3ncnc(N4CCOCC4)c23)c1
[12]
  % of control: 86%
